Test results: patent publication US20090041839A1, “PHARMACEUTICAL COMPOSITIONS FOR THE TREATMENT OF PAIN” (priority 2007, published 2009)
Where two headings read alike, the source gives them in different places.

Assay: Single escalating dose, age and food-effect pharmacokinetic study of T-62 soft gelatin capsules (Example 11)
Format: in vivo
Details: human, plasma, po; for AUC(0-inf) / Cmax / AUC(0-t): arithmetic mean (SD); for AUC(0-t): read-out: AUC0-48; for Tmax: median
Text: A single-center, 3-part study: Parts A and B were randomized, double-blind, and placebo-controlled, and evaluated the safety, tolerability, and pharmacokinetics of single, escalating dose levels of a T-62 composition in soft gelatin capsules (oral dosage form 4) in young healthy subjects (Part A), and a single dose of a T-62 composition in soft gelatin capsules (oral dosage form 4) in elderly healthy subjects (Part B). In Part C, the effect of food on the bioavailability of a single dose of T-62 (oral dosage form 4) in young healthy subjects was evaluated in an open label, randomized, crossover fashion.
Part A: The dose escalation phase of the study consisted of 6 cohorts of 12 young (18-45 years of age) healthy volunteers, a total of 72 subjects, randomly assigned in a 3:1 allocation to receive a single dose of either T-62 or placebo under fasted conditions. For all cohorts, subjects fasted for a minimum of 7 hours pre-dose to 4 hours post-dose. Subjects in the first cohort received a single dose of 100 mg of T-62 (n=9) or placebo (n=3). Subsequent cohorts of 12 new subjects received placebo or a higher dose level of T-62: Nine subjects in each cohort received a total of 2×100, 4×100, 8×100, 10×100 or 12×100 mg capsules of T-62; three subjects per dose level received placebo.
Part B: A total of 15 elderly subjects (≧65 years of age) were randomly assigned in a 4:1 allocation to receive a single dose of 4×100 mg of T-62 (n=12) or placebo (n=3) under fasted conditions, i.e., subjects were fasted for a minimum of 7 hours pre-dose to 4 hours post-dose.
Part C: A single cohort of 16 young (18-45 years of age) healthy volunteers were enrolled to evaluate the effect of food on the bioavailability and pharmacokinetics of a single-dose of 4×100 mg soft gelatin capsules of T-62. Subjects were randomly assigned in a 1:1 allocation to 1 of 2 treatment sequences (i.e., fed/fasted or fasted/fed) in a crossover fashion.
Each subject in Parts A and B completed Screening, Baseline, Treatment, and Follow-Up Phases. The Screening Phase was conducted on an outpatient basis within 30 days, but no less than 3 days, prior to the start of the Baseline Phase. The Baseline Phase consisted of clinical research unit (CRU) admission and final qualification assessments. The Treatment Phase was comprised of dosing, post-treatment safety assessments, and blood collections. Subjects were discharged approximately 50 hours after study drug administration on Day 3. The Follow-Up Phase occurred 2 to 4 days after discharge from the CRU.
Each subject in Part C completed a Screening Phase, Baseline and Treatment Phases for both crossover Dosing Periods I and II, and a single Follow-Up Phase. The Screening Phase was conducted on an outpatient basis within 30 days, but no less than 3 days, prior to the start of the Baseline Phase for Dosing Period I. Each Baseline Phase consisted of CRU admission and final/continuing qualification assessments. Each Treatment Phase was comprised of dosing, post-treatment safety assessments, and blood collections. T-62 was administered and post-treatment assessments were conducted on Day 1 of Dosing Period I. Subjects were discharged approximately 50 hours after study drug administration on Day 3. Following a 3-day washout, subjects crossed over and entered Dosing Period II. Subjects were re-admitted to the CRU one day before T-62 administration in Dosing Period II for Baseline assessments. T-62 was be administered and post-treatment assessments were conducted on Day 1 of Dosing Period II. Subjects were discharged approximately 50 hours after study drug administration on Day 3. The Follow-Up Phase occurred 2 to 4 days after discharge from the CRU following Dosing Period II. For each Dosing period, subjects randomized to receive T-62 under fed conditions were given a high fat breakfast on Day 1 about half an hour prior to dosing. Fasting subjects were not allowed to eat any food beginning a minimum of 7 hours pre-dose to 4 hours post-dose. […]

[1] = 100 mg, Part A, young healthy subjects, fasted, single oral dose 100 mg (oral dosage form 4), n = 9
[2] = 200 mg, Part A, young healthy subjects, fasted, single oral dose 2 × 100 mg (oral dosage form 4), n = 9
[3] = 400 mg, Part A, young healthy subjects, fasted, single oral dose 4 × 100 mg (oral dosage form 4), n = 9
[4] = 400 mg, Part B, elderly healthy subjects, fasted, single oral dose 4 × 100 mg (oral dosage form 4), n = 12
[5] = 400 mg, Part C, Fasted, young healthy subjects, single oral dose 4 × 100 mg (oral dosage form 4), n = 14
[6] = 400 mg, Part C, Fed, young healthy subjects, single oral dose 4 × 100 mg (oral dosage form 4), n = 16
[7] = 800 mg, Part A, young healthy subjects, fasted, single oral dose 8 × 100 mg (oral dosage form 4), n = 9
[8] = 1000 mg, Part A, young healthy subjects, fasted, single oral dose 10 × 100 mg (oral dosage form 4), n = 9
[9] = 1200 mg, Part A, young healthy subjects, fasted, single oral dose 12 × 100 mg (oral dosage form 4), n = 9

With `Nc1sc2c(c1C(=O)c1ccc(Cl)cc1)CCCC2` [T-62, (2-amino-4,5,6,7-tetrahydrobenzo[b]thiophen-3-yl)(4-chlorophenyl)-methanone] the AUC(0-inf) [1] was 106 ng·h/mL, the Cmax [1] was 30 ng/mL and the AUC(0-t) [1] was 92.2 ng·h/mL. The Tmax [1] was 2 h, the AUC(0-inf) [2] was 242 ng·h/mL and the Cmax [2] was 47.7 ng/mL. The AUC(0-t) [2] was 224 ng·h/mL, the Tmax [2] was 1 h and the AUC(0-inf) [3] was 557 ng·h/mL. It also gave a Cmax [3] of 110 ng/mL, an AUC(0-t) [3] of 525 ng·h/mL and a Tmax [3] of 2 h. It also gave an AUC(0-inf) [4] of 1290 ng·h/mL, a Cmax [4] of 227 ng/mL and an AUC(0-t) [4] of 1200 ng·h/mL. The Tmax [4] was 1.8 h, the AUC(0-inf) [5] was 576 ng·h/mL and the Cmax [5] was 95.8 ng/mL. For the same molecule, the AUC(0-t) [5] was 533 ng·h/mL, the Tmax [5] was 2.3 h and the AUC(0-inf) [6] was 933 ng·h/mL. It also gave a Cmax [6] of 154 ng/mL, an AUC(0-t) [6] of 884 ng·h/mL and a Tmax [6] of 3.5 h. For the same molecule, the AUC(0-inf) [7] was 1020 ng·h/mL, the Cmax [7] was 165 ng/mL and the AUC(0-t) [7] was 978 ng·h/mL. The Tmax [7] was 3.5 h, the AUC(0-inf) [8] was 1460 ng·h/mL and the Cmax [8] was 213 ng/mL. For the same molecule, the AUC(0-t) [8] was 1370 ng·h/mL, the Tmax [8] was 3 h and the AUC(0-inf) [9] was 1200 ng·h/mL. It also gave a Cmax [9] of 157 ng/mL, an AUC(0-t) [9] of 1110 ng·h/mL and a Tmax [9] of 3.5 h.
